As a reminder, the IC50 is the point on the concentration scale where inhibition reaches its midpoint.

For one assay, the target named is PI 3-kinase alpha (Homo sapiens (Human), UniProt P42336). To be noted: read-out: Assay A PI3Kα IC50.
The target of another assay is Vps34 (Homo sapiens (Human), UniProt Q8NEB9). To be noted: read-out: Assay C VPS34 IC50.
Another assay concerns the target PI 4-kinase beta (Homo sapiens (Human), UniProt Q9UBF8). To be noted: read-out: Assay D PI4Kβ IC50.
For assay [1], the target named is T1, PI 3-kinase alpha (Rat-1 pBABEpuro Myr-HA-hp110 alpha cells) (Homo sapiens (Human), UniProt P42336). The experiment in a line: cell-based.
Experimental: (§1) Cellular Assays for PI 3-Kinase Alpha (H2), Beta (I2) and Delta (J2): HTRF (Homogeneous Time Resolved Fluorescence) Format
(§2) All cell lines were cultivated in complete growth medium (DMEM high glucose GlutaMAX™ Pyruvate, 10% (v/v) fetal bovine serum, 0.1 mM MEM NEAA, 25 mM HEPES, puromycin 10 μg/mL, 100 U/ml Penicillin, 100 μg/ml Streptomycin) to 90% confluency at 37° C./5% CO2/90% humidity in a humidified CO2 incubator and were split twice a week.
(§3) Semi-automated preparation of cell lysates: For low (inhibited) controls, 0.9 mM NVP-BGT226-AF-1 in 90% (v/v) DMSO was added to the compound master plate. For compound testing, the cells were seeded at a density of 4000 (Rat-1_PI3Kdelta), 8000 (Rat-1_PI3Kalpha), or 6500 (Rat-1_PI3Kbeta) cells in 30 μl complete growth medium into cell culture treated 384-well plates and were grown at 37° C./5% CO2/90% humidity for 24 h. 10 μl of the compound predilutions were transferred to the cells. After treatment with compound for 1 h, medium was removed and cells were lysed by the addition of 20 μl lysis buffer supplemented with blocking buffer. Detection of p-AKT(Ser473) was performed with the HTRF pAKT (Ser473) assay kit according to the manufacturer's instructions using 16 μl of cell lysate in a total detection volume of 20 μl.
Assay [2] addresses T2, PI 3-kinase beta (Rat-1 pBABEpuro Myr-HA-hp110 beta cells) (Homo sapiens (Human), UniProt P42338). The assay is described as follows: cell-based. To be noted: Assay I PI3Kβ IC50.
Text: (§4) Cellular Assays for PI 3-Kinase Alpha (H1), Beta (I1) and Delta (J1): Surefire Format
(§5) The brand name SureFire denotes AlphaScreen assays that are adapted to quantify the phosphorylation of endogenous cellular proteins in cell lysates, by using matched antibody pairs, which consist of an anti-phospho-kinase and an anti-kinase antibody. The assay allows characterization of kinase signaling in cells as well as measurement of kinase inhibitor effects.
(§6) The p-Akt (S473) SureFire assay measures the phosphorylation of endogenous cellular Akt 1/2 at Ser473 in cell lysates. Using Rat-1 cells stably expressing myr-HA-tagged versions of the human PI3Kdelta, PI3Kalpha, or PI3Kbeta p110 catalytic subunit isoforms, the assay was developed as a two-plate protocol in a 384-well format.
(§7) For compound testing, the cells were seeded at a density of 4000 (Rat-1_PI3Kdelta), 7500 (Rat-1_PI3Kalpha), or 6200 (Rat-1_PI3Kbeta) cells in 20 μl complete growth medium into cell culture treated 384-well plates and were grown at 37° C./5% CO2/90% humidity for 24 h. Shortly before compound transfer, the complete medium was removed, 30 μl assay buffer (DMEM high glucose, 1×MEM NEAA, 10 mM HEPES, 2 mM L-glutamine, 0.1% (w/v) BSA) was added and 10 μl of the compound predilutions were transferred to the cells. […]
A further assay has as its target PI 3-kinase beta (Homo sapiens (Human), UniProt P42338). To be noted: read-out: Assay B PI3Kβ IC50.
Assay [3] concerns the target T1, PI 3-kinase alpha (Rat-1 pBABEpuro Myr-HA-hp110 alpha cells). The experiment in a line: cell-based. To be noted: Assay H PI3Kα IC50.
Text: as §4, §5, §6, §7
The target in a further assay is PI 3-kinase delta (Homo sapiens (Human), UniProt O00329). To be noted: read-out: Assay F PI3Kδ IC50.
The target of assay [4] is PI 3-kinase gamma (U937 cells, MIP1α-stimulated AKT phosphorylation) (Homo sapiens (Human), UniProt P48736). To be noted: read-out: Assay K2 PI3Kγ IC50.
The target in the next assay is mTOR (Homo sapiens (Human), UniProt P42345). To be noted: read-out: Assay G mTOR IC50.
Assay [5] deals with T2, PI 3-kinase beta (Rat-1 pBABEpuro Myr-HA-hp110 beta cells). The assay is described as follows: cell-based.
Experimental: as §1, §2, §3

Counter-ions that a name gives are not always drawn. Like-named read-outs stand apart in the source and are kept apart here.

Sequence of Vps34 (Q8NEB9 whole entry): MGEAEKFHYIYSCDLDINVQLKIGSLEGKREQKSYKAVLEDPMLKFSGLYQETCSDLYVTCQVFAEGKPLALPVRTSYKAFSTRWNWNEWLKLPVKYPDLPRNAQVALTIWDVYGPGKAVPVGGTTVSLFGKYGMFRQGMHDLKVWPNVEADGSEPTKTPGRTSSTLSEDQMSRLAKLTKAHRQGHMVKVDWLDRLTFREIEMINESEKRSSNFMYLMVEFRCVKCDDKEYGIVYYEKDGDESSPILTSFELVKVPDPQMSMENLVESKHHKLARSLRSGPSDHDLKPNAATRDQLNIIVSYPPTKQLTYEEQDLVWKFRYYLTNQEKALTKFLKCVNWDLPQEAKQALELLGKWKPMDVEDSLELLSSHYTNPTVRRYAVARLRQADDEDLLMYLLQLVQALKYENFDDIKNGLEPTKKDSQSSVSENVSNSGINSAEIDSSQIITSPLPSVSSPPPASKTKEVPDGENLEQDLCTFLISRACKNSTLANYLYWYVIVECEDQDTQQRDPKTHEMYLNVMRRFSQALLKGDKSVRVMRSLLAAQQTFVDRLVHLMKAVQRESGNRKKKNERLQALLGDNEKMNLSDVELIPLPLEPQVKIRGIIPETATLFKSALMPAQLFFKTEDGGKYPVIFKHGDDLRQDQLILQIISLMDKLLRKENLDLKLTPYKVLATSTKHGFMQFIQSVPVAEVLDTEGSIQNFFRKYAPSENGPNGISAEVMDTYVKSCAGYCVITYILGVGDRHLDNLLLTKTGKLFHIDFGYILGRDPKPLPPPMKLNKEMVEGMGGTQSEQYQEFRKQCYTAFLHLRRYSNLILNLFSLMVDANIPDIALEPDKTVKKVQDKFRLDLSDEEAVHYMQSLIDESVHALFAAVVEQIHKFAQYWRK
Sequence of PI 4-kinase beta (Q9UBF8 whole entry): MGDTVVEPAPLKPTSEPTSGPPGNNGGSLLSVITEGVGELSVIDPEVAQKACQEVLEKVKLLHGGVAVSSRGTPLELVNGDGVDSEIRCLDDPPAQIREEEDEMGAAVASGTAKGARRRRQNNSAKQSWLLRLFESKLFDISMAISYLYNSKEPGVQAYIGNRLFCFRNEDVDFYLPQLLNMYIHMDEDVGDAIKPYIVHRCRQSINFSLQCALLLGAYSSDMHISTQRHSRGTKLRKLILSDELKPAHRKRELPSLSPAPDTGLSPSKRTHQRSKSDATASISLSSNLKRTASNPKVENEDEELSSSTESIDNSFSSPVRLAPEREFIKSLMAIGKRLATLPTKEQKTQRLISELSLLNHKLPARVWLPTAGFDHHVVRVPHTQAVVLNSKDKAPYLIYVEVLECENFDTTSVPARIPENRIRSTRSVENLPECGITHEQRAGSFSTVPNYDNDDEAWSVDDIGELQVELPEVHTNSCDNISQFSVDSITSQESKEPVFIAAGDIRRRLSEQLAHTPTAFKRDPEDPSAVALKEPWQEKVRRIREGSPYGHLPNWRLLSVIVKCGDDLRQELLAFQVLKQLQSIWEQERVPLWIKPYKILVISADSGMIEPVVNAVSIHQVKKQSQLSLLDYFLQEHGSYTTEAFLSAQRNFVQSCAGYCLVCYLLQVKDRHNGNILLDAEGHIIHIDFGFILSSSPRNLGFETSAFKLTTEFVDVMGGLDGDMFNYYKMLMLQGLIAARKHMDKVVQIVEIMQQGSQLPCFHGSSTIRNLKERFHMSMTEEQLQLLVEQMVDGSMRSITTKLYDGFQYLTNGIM
Sequence of PI 3-kinase alpha (P42336 whole entry, looked up): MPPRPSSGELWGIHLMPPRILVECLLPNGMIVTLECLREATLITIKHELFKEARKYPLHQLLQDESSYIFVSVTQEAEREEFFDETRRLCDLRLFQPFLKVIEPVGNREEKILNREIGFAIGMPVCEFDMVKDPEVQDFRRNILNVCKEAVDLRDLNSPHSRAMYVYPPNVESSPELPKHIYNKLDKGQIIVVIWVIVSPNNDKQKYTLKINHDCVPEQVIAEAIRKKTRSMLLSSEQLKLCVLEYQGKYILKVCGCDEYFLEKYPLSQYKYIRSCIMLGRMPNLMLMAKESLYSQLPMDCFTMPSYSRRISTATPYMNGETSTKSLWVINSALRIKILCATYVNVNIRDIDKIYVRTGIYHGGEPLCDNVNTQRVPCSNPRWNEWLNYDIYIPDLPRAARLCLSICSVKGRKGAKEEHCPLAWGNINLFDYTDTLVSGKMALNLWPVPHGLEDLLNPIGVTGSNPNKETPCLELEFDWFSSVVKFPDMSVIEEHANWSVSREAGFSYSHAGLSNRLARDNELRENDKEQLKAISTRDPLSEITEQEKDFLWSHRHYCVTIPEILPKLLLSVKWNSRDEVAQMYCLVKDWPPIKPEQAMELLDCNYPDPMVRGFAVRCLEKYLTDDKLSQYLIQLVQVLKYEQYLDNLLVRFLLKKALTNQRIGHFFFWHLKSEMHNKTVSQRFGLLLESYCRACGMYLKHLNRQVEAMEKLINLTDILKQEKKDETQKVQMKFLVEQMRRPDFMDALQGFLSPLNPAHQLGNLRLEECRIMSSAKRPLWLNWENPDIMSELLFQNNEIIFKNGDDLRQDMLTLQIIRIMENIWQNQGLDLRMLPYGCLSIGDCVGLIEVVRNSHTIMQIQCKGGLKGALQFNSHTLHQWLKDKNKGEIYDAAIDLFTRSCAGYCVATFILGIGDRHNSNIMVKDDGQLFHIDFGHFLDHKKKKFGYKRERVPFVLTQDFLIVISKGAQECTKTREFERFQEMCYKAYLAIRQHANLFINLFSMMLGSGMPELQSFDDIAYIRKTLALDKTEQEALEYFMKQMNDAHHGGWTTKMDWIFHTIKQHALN
Sequence of PI 3-kinase alpha (P27986 whole entry partner, looked up): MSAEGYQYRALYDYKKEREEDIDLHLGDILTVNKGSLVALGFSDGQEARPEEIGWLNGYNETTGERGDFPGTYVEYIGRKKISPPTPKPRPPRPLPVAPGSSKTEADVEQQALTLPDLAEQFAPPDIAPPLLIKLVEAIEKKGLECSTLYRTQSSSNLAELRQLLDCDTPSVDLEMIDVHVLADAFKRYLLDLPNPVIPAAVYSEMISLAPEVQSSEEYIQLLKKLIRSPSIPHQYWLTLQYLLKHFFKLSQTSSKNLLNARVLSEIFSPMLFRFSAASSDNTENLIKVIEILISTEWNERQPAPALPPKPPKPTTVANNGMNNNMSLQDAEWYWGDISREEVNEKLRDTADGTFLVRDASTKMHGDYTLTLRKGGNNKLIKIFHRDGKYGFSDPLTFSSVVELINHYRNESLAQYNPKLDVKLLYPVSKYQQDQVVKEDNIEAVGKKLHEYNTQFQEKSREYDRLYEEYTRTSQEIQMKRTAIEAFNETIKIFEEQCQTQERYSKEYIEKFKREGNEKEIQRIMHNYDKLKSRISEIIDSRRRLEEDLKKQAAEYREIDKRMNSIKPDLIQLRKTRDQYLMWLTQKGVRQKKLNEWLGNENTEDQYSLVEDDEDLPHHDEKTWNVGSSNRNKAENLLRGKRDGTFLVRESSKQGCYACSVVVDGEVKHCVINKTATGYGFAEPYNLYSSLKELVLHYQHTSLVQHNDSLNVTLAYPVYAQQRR
Sequence of PI 3-kinase beta (P42338 whole entry, looked up): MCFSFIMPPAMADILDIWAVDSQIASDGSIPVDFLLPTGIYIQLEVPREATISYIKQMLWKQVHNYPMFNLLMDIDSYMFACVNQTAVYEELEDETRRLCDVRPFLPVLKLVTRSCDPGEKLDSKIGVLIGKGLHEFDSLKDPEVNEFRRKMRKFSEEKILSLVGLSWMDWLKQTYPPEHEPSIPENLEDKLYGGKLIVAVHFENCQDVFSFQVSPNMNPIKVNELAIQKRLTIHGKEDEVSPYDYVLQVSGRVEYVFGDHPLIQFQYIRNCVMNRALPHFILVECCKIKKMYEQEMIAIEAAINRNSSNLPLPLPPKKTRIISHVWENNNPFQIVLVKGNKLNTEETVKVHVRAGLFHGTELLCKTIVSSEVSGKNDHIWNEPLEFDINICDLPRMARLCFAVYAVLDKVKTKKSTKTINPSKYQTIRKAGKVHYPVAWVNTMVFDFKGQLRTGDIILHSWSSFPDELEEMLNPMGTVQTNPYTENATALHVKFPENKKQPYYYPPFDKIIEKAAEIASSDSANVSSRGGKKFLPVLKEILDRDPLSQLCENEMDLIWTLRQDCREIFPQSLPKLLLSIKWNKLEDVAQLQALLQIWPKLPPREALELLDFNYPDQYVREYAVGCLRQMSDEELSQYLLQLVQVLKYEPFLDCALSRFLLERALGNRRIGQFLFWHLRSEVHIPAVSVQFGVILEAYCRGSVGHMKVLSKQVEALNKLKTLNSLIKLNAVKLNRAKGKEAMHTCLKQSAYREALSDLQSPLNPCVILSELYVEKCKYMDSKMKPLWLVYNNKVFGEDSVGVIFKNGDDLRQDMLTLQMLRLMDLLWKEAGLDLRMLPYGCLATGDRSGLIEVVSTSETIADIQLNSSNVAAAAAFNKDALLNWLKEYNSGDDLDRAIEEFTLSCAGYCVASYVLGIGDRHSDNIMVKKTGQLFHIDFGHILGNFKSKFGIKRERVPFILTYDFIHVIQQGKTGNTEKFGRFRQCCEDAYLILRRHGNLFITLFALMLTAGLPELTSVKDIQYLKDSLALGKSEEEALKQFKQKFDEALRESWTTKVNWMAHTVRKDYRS
Sequence of PI 3-kinase beta (P27986 whole entry partner, looked up): as the sequence (P27986 whole entry partner, looked up) above

Consider `Cc1cc(-c2cc(-c3cc(S(=O)(=O)N4CC(N(C)C)C4)ccc3C)cnc2N)on1` [Example 19.19, 5-(5-((3-(dimethylamino)azetidin-1-yl)sulfonyl)-2-methylphenyl)-3-(3-methylisoxazol-5-yl)pyridin-2-amine acetic acid salt], for which the concentration for half-maximal inhibition (IC50) on PI 3-kinase alpha is 3100 nM; at Vps34 it was over 10 µM; on PI 4-kinase beta, 8.5 µM; in assay [1] it was over 10 µM.
Turning to `Cc1noc(-c2cc(-c3cc(S(=O)(=O)NCC(C)(C)O)c(C)cc3C)cnc2N)n1` [Example 100], the IC50 on PI 3-kinase alpha was 260 nM; in [2], over 10 µM; at Vps34, over 10 µM; on PI 4-kinase beta, 4.25 µM; on PI 3-kinase beta it was 2250 nM; in assay [3], 4.14 µM.
As for `Cc1ncc(-c2cc(-c3cc(S(=O)(=O)NCC4(O)COC4)ccc3C)cnc2N)s1` [Example 83.3, 3-(6-amino-5-(2-methylthiazol-5-yl)pyridin-3-yl)-N-((3-hydroxyoxetan-3-yl)methyl)-4-methylbenzenesulfonamide], the IC50 was found to be 900 nM at PI 3-kinase delta; 570 nM on PI 3-kinase alpha; 9.7 µM on Vps34; 1.7 µM on PI 4-kinase beta; 3000 nM on PI 3-kinase beta.
As to `Cc1cc(-c2cc(-c3cc(S(=O)(=O)NCC4(O)CCC4)ccc3C)cnc2N)on1` [Example 37.35, 3-(6-Amino-5-(3-methylisoxazol-5-yl)pyridin-3-yl)-N-((1-hydroxycyclobutyl)methyl)-4-methylbenzenesulfonamide], the IC50 was 101 nM in assay [4], over 10 µM at mTOR and over 10 µM at Vps34.
Regarding `Cc1cc(-c2cc(-c3cc(S(=O)(=O)N4C[C@H](C)[C@@H](O)C4)ccc3C)cnc2N)on1` (relative stereo) [Example 101.3, trans-1-((3-(6-amino-5-(3-methylisoxazol-5-yl)pyridin-3-yl)-4-methylphenyl)sulfonyl)-4-methylpyrrolidin-3-ol], the IC50 in [5] was over 10 µM; on Vps34 it was over 10 µM; at PI 4-kinase beta, 3.6 µM; on PI 3-kinase beta, 5100 nM.
Regarding `Cc1ccc(S(=O)(=O)N[C@H]2CC[C@H](O)CC2)cc1-c1cnc(N)c(-c2nc(CC(F)(F)F)no2)c1` [Example 78, trans-3-(6-Amino-5-(3-(2,2,2-trifluoroethyl)-1,2,4-oxadiazol-5-yl)pyridin-3-yl)-N-((1r,4r)-4-hydroxycyclohexyl)-4-methylbenzenesulfonamide], the IC50 was over 10 µM in [2], over 10 µM on Vps34, 0.49 µM on PI 4-kinase beta and 2500 nM on PI 3-kinase beta.

(Values after patent US10112926B2 (priority 2014, dated 2018).)
